Measured values reported in patent US9265253B2, “Use of macrocyclic picolinamides as fungicides” (DOW AGROSCIENCES LLC, priority 2013, dated 2016).
Like-named read-outs stand apart in the source and are kept apart here.

Key:
Format in all cases: in vivo
[1] = system: Mycosphaerella graminicola; Anamorph: Septoria tritici; test: Leaf Blotch of Wheat (SEPTTR) disease control; conditions: for pest or weed control at 121.5 g/ha / pest or weed control at 100 ppm: Zymoseptoria tritici
In short: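 Yuma wheat, 1st leaf stage; spray to run-off, acetone + 9 vol water/110 ppm Triton X-100; S. tritici spores pre- or post-treatment; dew chamber 100% RH, then greenhouse 20° C. Read: % severity vs untreated → % control.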

[2] = system: Puccinia triticina; Synonym: Puccinia recondite f. Sp. Tritici; test: Wheat Brown Rust (PUCCRT) disease control; conditions: for pest or weed control at 121.5 g/ha / pest or weed control at 100 ppm: Puccinia triticina, topical
In short: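 Brown rust on first-leaf Yuma wheat: spore inoculation before or after spray application (acetone/Triton X-100 solution, or EC with Trycol in track spray), overnight 100% RH at 22 °C, disease developed at 24 °C. Severity scored 0–100% and converted to percent control against untreated.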

[3] = system: Venturia inaequalis; test: Apple Scab (VENTIN) disease control; conditions: 1 Day Protectant; for pest or weed control at 100 ppm: Venturia inaequalis, topical, 24 h, read-out: Disease Control VENTIN 1 DP
Protocol: Technical grades of materials were dissolved in acetone, which were then mixed with nine volumes of water containing 110 ppm Triton X-100. The fungicide solutions were applied onto wheat seedlings using an automated booth sprayer to run-off. All sprayed plants were allowed to air dry prior to further handling. All fungicides were evaluated using the aforementioned method for their activity vs. all target diseases. Wheat leaf blotch and brown rust activity were also evaluated using track spray applications, in which case the fungicides were formulated as EC formulations, containing 0.1% Trycol 5941 in the spray solutions. Wheat plants (variety Yuma) were grown from seed in a greenhouse in 50% mineral soil/50% soil-less Metro mix until the first leaf was fully emerged, with 7-10 seedlings per pot. These plants were inoculated with an aqueous spore suspension of Septoria tritici either prior to or after fungicide treatments. After inoculation the plants were kept in 100% relative humidity (one day in a dark dew chamber followed by two to three days in a lighted dew chamber at 20° C.) to permit spores to germinate and infect the leaf. The plants were then transferred to a greenhouse set at 20° C. for disease to develop. When disease symptoms were fully expressed on the 1st leaves of untreated plants, infection levels were assessed on a scale of 0 to 100 percent disease severity. Percent disease control was calculated using the ratio of disease severity on treated plants relative to untreated plants. Apple seedlings (variety McIntosh) were grown in soil-less Metro mix, with one plant per pot. Seedlings with two expanding young leaves at the top (older leaves at bottom of the plants were trimmed) were used in the test. Plants were inoculated with a spore suspension of Venturia inaequalis 24 hr after fungicide treatment and kept in a 22° C. dew chamber with 100% RH for 48 hr, and then moved to a greenhouse set at 20° C. for disease to develop. Fungicide formulation, application and disease assessment on the sprayed leaves followed the procedures as described in the Example A.

[4] = system: Alternaria solani; test: Tomato Early Blight (ALTESO) disease control; conditions: 1 Day Protectant; for pest or weed control at 100 ppm: Alternaria solani, topical, 24 h, read-out: Disease Control ALTESO 1 DP
In short: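 Acetone solutions diluted in nine volumes of water with 110 ppm Triton X-100, sprayed to run-off on 12–14-day-old tomato plants (Outdoor girl). Alternaria solani spores applied 24 h after treatment, then 100% RH dew chambers at 20° C. and a 22° C. growth room. Percent control from disease severity (0–100%) relative to untreated plants.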

[5] = 24 h, 1 Day Protectant, rate 121.5 g/H, read-out: SEPTTR 1 DP disease control
[6] = 72 h, 3 Day Curative, rate 121.5 g/H, read-out: SEPTTR 3 DC disease control
[7] = 24 h, 1 Day Protectant, rate 121.5 g/H, read-out: PUCCRT 1 DP disease control
[8] = 72 h, 3 Day Curative, rate 121.5 g/H, read-out: PUCCRT 3 DC disease control
[9] = 24 h, 1 Day Protectant, rate 100 ppm, read-out: SEPTTR 1 DP disease control
[10] = 72 h, 3 Day Curative, rate 100 ppm, read-out: SEPTTR 3 DC disease control
[11] = 24 h, 1 Day Protectant, rate 100 ppm, read-out: PUCCRT 1 DP disease control
[12] = 72 h, 3 Day Curative, rate 100 ppm, read-out: PUCCRT 3 DC disease control
[13] = 1 Day Protectant, rate 121.5 g/H

SMILES: C=C[C@H]1CCC[C@H](NC(=O)c2nccc(OC)c2OCOC(C)=O)C(=O)O[C@@H](C)[C@@H]1Oc1ccccc1 [Compound F146]
- pest or weed control at 121.5 g/ha [1, 5]: 80 to 100%
- pest or weed control at 121.5 g/ha [1, 6]: 80 to 100%
- pest or weed control at 121.5 g/ha [2, 7]: 80 to 100%
- pest or weed control at 121.5 g/ha [2, 8]: 80 to 100%
- pest or weed control at 100 ppm [3]: 80 to 100%
- pest or weed control at 100 ppm [4]: 80 to 100%

SMILES: CCCO[C@@H]1[C@@H](CCC(C)C)CCC[C@H](NC(=O)c2nccc(OC)c2OCOC(C)=O)C(=O)O[C@H]1C [Compound F92]
- pest or weed control at 100 ppm [1, 9]: 80 to 100%
- pest or weed control at 121.5 g/ha [1, 5]: 80 to 100%
- pest or weed control at 100 ppm [1, 10]: 80 to 100%
- pest or weed control at 121.5 g/ha [1, 6]: 80 to 100%
- pest or weed control at 100 ppm [2, 11]: 80 to 100%
- pest or weed control at 121.5 g/ha [2, 7]: 80 to 100%
- pest or weed control at 100 ppm [2, 12]: 80 to 100%
- pest or weed control at 121.5 g/ha [2, 8]: 80 to 100%
- pest or weed control at 100 ppm [3]: 80 to 100%
- pest or weed control at 100 ppm [4]: 80 to 100%

SMILES: COc1ccnc(C(=O)N[C@H]2CCC[C@H](Cc3ccc(F)cc3)[C@@H](OCC3CC3)[C@H](C)OC2=O)c1OCOC(C)=O [Compound F98]
- SEPTTR 1 DP disease control ([1]; 1 Day Protectant, rate 100 ppm): A (80-100)
- SEPTTR 1 DP disease control [1, 13]: A (80-100)
- SEPTTR 3 DC disease control ([1]; 3 Day Curative, rate 100 ppm): A (80-100)
- SEPTTR 3 DC disease control ([1]; 3 Day Curative, rate 121.5 g/H): A (80-100)
- PUCCRT 1 DP disease control ([2]; 1 Day Protectant, rate 100 ppm): A (80-100)
- PUCCRT 1 DP disease control [2, 13]: A (80-100)
- PUCCRT 3 DC disease control ([2]; 3 Day Curative, rate 100 ppm): A (80-100)
- PUCCRT 3 DC disease control ([2]; 3 Day Curative, rate 121.5 g/H): A (80-100)
- Disease Control VENTIN 1 DP ([3]; 100 ppm): B (More than 0-Less than 80)
- Disease Control ALTESO 1 DP ([4]; 100 ppm): A (80-100)

SMILES: CCCO[C@@H]1[C@@H](Cc2ccccc2)CCC[C@H](NC(=O)c2nccc(OC)c2OCOC(=O)COCC)C(=O)O[C@H]1C [Compound F174]
- pest or weed control at 100 ppm [1, 9]: 80 to 100%
- pest or weed control at 121.5 g/ha [1, 5]: 80 to 100%
- pest or weed control at 100 ppm [1, 10]: 80 to 100%
- pest or weed control at 121.5 g/ha [1, 6]: 80 to 100%
- pest or weed control at 100 ppm [2, 11]: 80 to 100%
- pest or weed control at 121.5 g/ha [2, 7]: 80 to 100%
- pest or weed control at 100 ppm [2, 12]: 80 to 100%
- pest or weed control at 121.5 g/ha [2, 8]: 80 to 100%
- pest or weed control at 100 ppm [3]: 80 to 100%
- pest or weed control at 100 ppm [4]: 80 to 100%

SMILES: CCOCC(=O)OCOc1c(OC)ccnc1C(=O)N[C@H]1CCC[C@H](CCOC)[C@@H](Oc2ccccc2)[C@H](C)OC1=O [Compound F183]
- pest or weed control at 100 ppm [1, 9]: 80 to 100%
- pest or weed control at 121.5 g/ha [1, 5]: 80 to 100%
- pest or weed control at 100 ppm [1, 10]: 80 to 100%
- pest or weed control at 121.5 g/ha [1, 6]: 80 to 100%
- pest or weed control at 100 ppm [2, 11]: 80 to 100%
- pest or weed control at 121.5 g/ha [2, 7]: 80 to 100%
- pest or weed control at 100 ppm [2, 12]: 80 to 100%
- pest or weed control at 121.5 g/ha [2, 8]: 80 to 100%
- pest or weed control at 100 ppm [3]: 0 to 80%
- pest or weed control at 100 ppm [4]: 0 to 80%

SMILES: COc1ccnc(C(=O)N[C@H]2CCC[C@H](CCBr)[C@@H](Oc3ccccc3)[C@H](C)OC2=O)c1OC(C)=O [Compound F80]
- pest or weed control at 100 ppm [1, 9]: 80 to 100%
- pest or weed control at 121.5 g/ha [1, 5]: 80 to 100%
- pest or weed control at 100 ppm [1, 10]: 80 to 100%
- pest or weed control at 121.5 g/ha [1, 6]: 80 to 100%
- pest or weed control at 100 ppm [2, 11]: 80 to 100%
- pest or weed control at 121.5 g/ha [2, 7]: 80 to 100%
- pest or weed control at 100 ppm [2, 12]: 80 to 100%
- pest or weed control at 121.5 g/ha [2, 8]: 80 to 100%
- pest or weed control at 100 ppm [3]: 0 to 80%
- pest or weed control at 100 ppm [4]: 0 to 80%
